Experiments:
Assay type in all cases: in vivo
[1] = tested on: Surinam grass (Brachiaria decumbens); experiment: Test B preemergence
Summary of the method: (§1)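 Seeds were planted and sprayed preemergence with test chemical in a non-phytotoxic solvent mixture containing surfactant; postemergence plants (2 to 18 cm, 1- to 4-leaf stage) received the same formulation. Greenhouse hold 13 to 15 days, then visual rating versus untreated controls on a 0–100 scale (0 no effect, 100 complete control).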

[2] = tested on: barnyardgrass (Echinochloa crus-galli); experiment: Test B preemergence
Summary of the method: as §1

[3] = tested on: cocklebur (Xanthium strumarium); experiment: Test B preemergence
Summary of the method: as §1

corn (Zea mays) = experiment: Test B preemergence
Summary of the method: as §1

[4] = tested on: crabgrass (Digitaria sanguinalis); experiment: Test B preemergence
Summary of the method: as §1

[5] = tested on: giant foxtail (Setaria faberii); experiment: Test B preemergence
Summary of the method: as §1

[6] = tested on: lambsquarters (Chenopodium album); experiment: Test B preemergence
Summary of the method: as §1

[7] = tested on: morning glory (Ipomoea hederacea); experiment: Test B preemergence
Summary of the method: as §1

[8] = tested on: pigweed (Amaranthus retroflexus); experiment: Test B preemergence
Summary of the method: as §1

rice (Oryza saliva) = experiment: Test B preemergence
Summary of the method: as §1

[9] = tested on: velvetleaf (Abutilon theophrasti); experiment: Test B preemergence
Summary of the method: as §1

Sunflower [10] = experiment: Test C preemergence
Text: (§2) Seeds of plant species selected from bermudagrass (Cynodon dactylon), Surinam grass (Brachiaria decumbens), cocklebur (Xanthium strumarium), corn (Zea mays), crabgrass (Digitaria sanguinalis), woolly cupgrass (Eriochloa villosa), giant foxtail (Setaria faberii), goosegrass (Eleusine indica), johnsongrass (Sorghum halepense), kochia (Kochia scoparia), lambsquarters (Chenopodium album), morningglory (Ipomoea hederacea), yellow nutsedge (Cyperus esculentus), pigweed (Amaranthus retroflexus), common ragweed (Ambrosia elatior), soybean (Glycine max) and velvetleaf (Abutilon theophrasti) were planted and treated preemergence with test chemicals formulated in a non-phytotoxic solvent mixture which included a surfactant.
(§3) At the same time, plants selected from these crop and weed species and also winter barley (Hordeum vulgare), blackgrass (Alopecurus myosuroides), canary grass (Phalaris minor), chickweed (Stellaria media), downy brome (Bromus tectorum), green foxtail (Setaria viridis), Italian ryegrass (Lolium multiflorum), wheat (Triticum aestivum), wild oat (Avena fatua) and windgrass (Apera spica-venti) were treated with postemergence applications of some of the test chemicals formulated in the same manner. Plants ranged in height from 2 to 18 cm (1- to 4-leaf stage) for postemergence treatments. Plant species in the flooded paddy test consisted of rice (Oryza saliva), smallflower flatsedge (Cyperus difformis), duck salad (Heteranthera limosa) and barnyardgrass (Echinochloa crus-galli) grown to the 2-leaf stage for testing. Treated plants and controls were maintained in a greenhouse for 12 to 14 days, after which time all species were compared to controls and visually evaluated. Plant response ratings, summarized in Table C, are based on a scale of 0 to 100 where 0 is no effect and 100 is complete control. A dash (-) response means no test result.

[11] = tested on: Surinam grass (Brachiaria decumbens); experiment: Test C preemergence; settings: for Plant response rating (0 to 100), Surinam grass: visual evaluation after 12 to 14 days
Text: as §2, §3

[12] = tested on: bermudagrass (Cynodon dactylon); experiment: Test C preemergence; settings: for Plant response rating (0 to 100 where 0 is no effect and 100 is complete control), Bermudagrass: visual evaluation after 12 to 14 days
Text: as §2, §3

[13] = tested on: cocklebur (Xanthium strumarium); experiment: Test C preemergence; settings: for Plant response rating (0 to 100), Cocklebur: visual evaluation after 12 to 14 days
Text: as §2, §3

[14] = tested on: common ragweed (Ambrosia elatior); experiment: Test C preemergence; settings: for Plant response rating (0 to 100), Ragweed, Common: visual evaluation after 12 to 14 days
Text: as §2, §3

[15] = tested on: crabgrass (Digitaria sanguinalis); experiment: Test C preemergence; settings: for Plant response rating (0 to 100), Crabgrass: visual evaluation after 12 to 14 days
Text: as §2, §3

[16] = tested on: giant foxtail (Setaria faberii); experiment: Test C preemergence
Text: as §2, §3

[17] = tested on: goosegrass (Eleusine indica); experiment: Test C preemergence; settings: for Plant response rating (0 to 100), Goosegrass: visual evaluation after 12 to 14 days
Text: as §2, §3

[18] = tested on: morningglory (Ipomoea hederacea); experiment: Test C preemergence; settings: for Plant response rating (0 to 100), Morningglory: visual evaluation after 12 to 14 days
Text: as §2, §3

[19] = tested on: velvetleaf (Abutilon theophrasti); experiment: Test C preemergence; settings: for Plant response rating (0 to 100), Velvetleaf: visual evaluation after 12 to 14 days
Text: as §2, §3

Sunflower [20] = experiment: Test C preemergence; settings: visual evaluation after 12 to 14 days
[21] = Preemergence, Rate 500 g/ha, scale 0 to 100, 0 no effect, 100 complete control
[22] = preemergence, Rate 125 g/ha, scale of 0 to 100 where 0 is no effect and 100 is complete control, 13 to 15 days
[23] = Preemergence, Rate 500 g/ha, scale 0 to 100
[24] = Rate 62 g/ha, scale 0 to 100, 0 no effect, 100 complete control
[25] = preemergence, Rate 125 g/ha, scale 0 to 100, 0 no effect, 100 complete control
[26] = Rate 125 g/ha, scale 0 to 100, 0 no effect, 100 complete control
[27] = preemergence, Rate 62 g/ha, scale 0 to 100
[28] = preemergence, Rate 250 g/ha, scale 0 to 100, 0 no effect, 100 complete control

CC(C)(C)c1ccn(C2CCN(c3ccc(Cl)c(Br)c3)C2=O)n1 (centres unmarked) [Compound 56]
Plant response rating, Surinam grass [1, 21]: 30 | Plant response rating, Surinam grass [1, 22]: 30 | Plant response rating, Barnyardgrass [2, 21]: 50 | Plant response rating, Barnyardgrass [2, 22]: 0 | Plant response rating, Cocklebur [3, 22]: 0 | Plant response rating, Corn (corn (Zea mays); [21]): 0 | Plant response rating, Corn (corn (Zea mays); [22]): 0 | Plant response rating, Crabgrass [4, 21]: 100 | Plant response rating, Crabgrass [4, 22]: 30 | Plant response rating, Foxtail, Giant [5, 21]: 90 | Plant response rating, Foxtail, Giant [5, 22]: 50 | Plant response rating, Lambsquarters [6, 21]: 100 | Plant response rating, Lambsquarters [6, 22]: 100 | Plant response rating, Morningglory [7, 21]: 0 | Plant response rating, Morningglory [7, 22]: 0 | Plant response rating, Pigweed [8, 21]: 100 | Plant response rating, Pigweed [8, 22]: 100 | Plant response rating, Rice (rice (Oryza saliva); [21]): 0 | Plant response rating, Rice (rice (Oryza saliva); [22]): 0 | Plant response rating, Velvetleaf [9, 21]: 0 | Plant response rating, Velvetleaf [9, 22]: 0 | Plant response rating, Sunflower (Sunflower [10]; Rate 500 g/ha, scale 0 to 100): 0 | Plant response rating, Surinam grass [11, 23]: 0 | Plant response rating, Surinam grass [11, 24]: 0 | Plant response rating (0 to 100), Surinam grass ([11]; preemergence, Rate 250 g/ha): 0 | Plant response rating, Surinam grass [11, 25]: 0 | Plant response rating, Bermudagrass [12, 23]: 100 | Plant response rating, Bermudagrass [12, 24]: 40 | Plant response rating (0 to 100 where 0 is no effect and 100 is complete control), Bermudagrass ([12]; preemergence, Rate 250 g/ha): 90 | Plant response rating, Bermudagrass [12, 25]: 50 | Plant response rating, Cocklebur [13, 23]: 100 | Plant response rating, Cocklebur [13, 24]: 0 | Plant response rating (0 to 100), Cocklebur ([13]; preemergence, Rate 250 g/ha): 0 | Plant response rating, Cocklebur [13, 25]: 0 | Plant response rating, Ragweed, Common [14, 23]: 20 | Plant response rating (0 to 100), Ragweed, Common ([14]; preemergence, Rate 250 g/ha): 0 | Plant response rating, Ragweed, Common [14, 25]: 0 | Plant response rating, Crabgrass [15, 23]: 100 | Plant response rating, Crabgrass [15, 24]: 30 | Plant response rating (0 to 100), Crabgrass ([15]; preemergence, Rate 250 g/ha): 90 | Plant response rating, Crabgrass [15, 25]: 30 | Plant response rating, Foxtail, Giant [16, 23]: 90 | Plant response rating, Foxtail, Giant [16, 24]: 0 | Plant response rating, Foxtail, Giant [16, 25]: 0 | Plant response rating, Goosegrass [17, 23]: 100 | Plant response rating, Goosegrass [17, 24]: 60 | Plant response rating (0 to 100), Goosegrass ([17]; preemergence, Rate 250 g/ha): 90 | Plant response rating, Goosegrass [17, 25]: 80 | Plant response rating, Morningglory [18, 23]: 0 | Plant response rating, Morningglory [18, 24]: 0 | Plant response rating (0 to 100), Morningglory ([18]; preemergence, Rate 250 g/ha): 0 | Plant response rating, Morningglory [18, 25]: 0 | Plant response rating, Velvetleaf [19, 23]: 20 | Plant response rating (0 to 100), Velvetleaf ([19]; preemergence, Rate 250 g/ha): 0 | Plant response rating, Velvetleaf [19, 25]: 0 | Plant response rating (0 to 100), Sunflower (Sunflower [20]; Rate 250 g/ha): 0

CCC(CC)c1ccn(C2CCN(c3cccc(OC)c3)C2=O)n1 (centres unmarked) [Compound 96]
Plant response rating, Surinam grass [1, 21]: 80 | Plant response rating, Surinam grass [1, 22]: 50 | Plant response rating, Barnyardgrass [2, 21]: 100 | Plant response rating, Barnyardgrass [2, 22]: 100 | Plant response rating, Cocklebur [3, 21]: 30 | Plant response rating, Cocklebur [3, 22]: 20 | Plant response rating, Corn (corn (Zea mays); [21]): 20 | Plant response rating, Corn (corn (Zea mays); [22]): 0 | Plant response rating, Crabgrass [4, 21]: 100 | Plant response rating, Crabgrass [4, 22]: 100 | Plant response rating, Foxtail, Giant [5, 21]: 100 | Plant response rating, Foxtail, Giant [5, 22]: 100 | Plant response rating, Lambsquarters [6, 21]: 100 | Plant response rating, Lambsquarters [6, 22]: 100 | Plant response rating, Morningglory [7, 21]: 80 | Plant response rating, Morningglory [7, 22]: 0 | Plant response rating, Pigweed [8, 21]: 100 | Plant response rating, Pigweed [8, 22]: 100 | Plant response rating, Rice (rice (Oryza saliva); [21]): 100 | Plant response rating, Rice (rice (Oryza saliva); [22]): 70 | Plant response rating, Velvetleaf [9, 21]: 50 | Plant response rating, Velvetleaf [9, 22]: 0 | Plant response rating, Sunflower (Sunflower [10]; [26]): 0 | Plant response rating, Surinam grass [11, 26]: 90 | Plant response rating, Surinam grass [11, 27]: 50 | Plant response rating (0 to 100), Surinam grass ([11]; preemergence, Rate 500 g/ha): 100 | Plant response rating, Surinam grass [11, 28]: 100 | Plant response rating, Bermudagrass [12, 26]: 100 | Plant response rating, Bermudagrass [12, 27]: 100 | Plant response rating (0 to 100 where 0 is no effect and 100 is complete control), Bermudagrass ([12]; preemergence, Rate 500 g/ha): 100 | Plant response rating, Bermudagrass [12, 28]: 100 | Plant response rating, Cocklebur [13, 26]: 20 | Plant response rating, Cocklebur [13, 27]: 0 | Plant response rating (0 to 100), Cocklebur ([13]; preemergence, Rate 500 g/ha): 30 | Plant response rating, Cocklebur [13, 28]: 30 | Plant response rating, Ragweed, Common [14, 26]: 0 | Plant response rating, Ragweed, Common [14, 27]: 0 | Plant response rating (0 to 100), Ragweed, Common ([14]; preemergence, Rate 500 g/ha): 70 | Plant response rating, Ragweed, Common [14, 28]: 40 | Plant response rating, Crabgrass [15, 26]: 100 | Plant response rating, Crabgrass [15, 27]: 100 | Plant response rating (0 to 100), Crabgrass ([15]; preemergence, Rate 500 g/ha): 100 | Plant response rating, Crabgrass [15, 28]: 100 | Plant response rating, Foxtail, Giant [16, 26]: 0 | Plant response rating, Foxtail, Giant [16, 27]: 100 | Plant response rating (0 to 100), Foxtail, Giant ([16]; preemergence, Rate 500 g/ha, visual evaluation after 12 to 14 days): 100 | Plant response rating, Foxtail, Giant [16, 28]: 0 | Plant response rating, Goosegrass [17, 26]: 100 | Plant response rating, Goosegrass [17, 27]: 100 | Plant response rating (0 to 100), Goosegrass ([17]; preemergence, Rate 500 g/ha): 100 | Plant response rating, Goosegrass [17, 28]: 100 | Plant response rating, Morningglory [18, 26]: 0 | Plant response rating, Morningglory [18, 27]: 0 | Plant response rating (0 to 100), Morningglory ([18]; preemergence, Rate 500 g/ha): 20 | Plant response rating, Morningglory [18, 28]: 20 | Plant response rating, Velvetleaf [19, 26]: 0 | Plant response rating, Velvetleaf [19, 27]: 0 | Plant response rating (0 to 100), Velvetleaf ([19]; preemergence, Rate 500 g/ha): 40 | Plant response rating, Velvetleaf [19, 28]: 30 | Plant response rating (0 to 100), Sunflower (Sunflower [20]; Rate 500 g/ha): 50
